In patent US10335462B2, “Use of long-acting GLP-1 peptides” (Novo Nordisk A/S, priority 2012, dated 2019):
Like-named read-outs stand apart in the source and are kept apart here.

Experiments:
[1] = test system: human subjects with type 2 diabetes; conditions: in vivo
Excerpt: (§1) The placebo composition may be identical to the composition of the GLP-1 agonists, but not containing a GLP-1 agonist.
(§2) In a 12-week, randomised, double-blind, placebo-controlled trial, 411 human subjects (n=43-50 per group) with type 2 diabetes were exposed.

[2] = test system: human subjects with type 2 diabetes; experiment: 12-week randomised, double-blind, placebo-controlled trial: safety and tolerability
Excerpt: as §1, §2

| Compound | major hypoglycaemia [1] | reports of pancreatitis [1] | treatment-related changes in blood calcitonin [1] | withdrawals due to gastrointestinal adverse events [1] | proportion of subjects with nausea and vomiting ([2]; 12 weeks) | reports of pancreatitis ([2]; 12 weeks) | safety concerns ([2]; 12 weeks) | treatment-related changes in blood calcitonin ([2]; 12 weeks) | major hypoglycaemia ([2]; all dose groups) | withdrawals due to gastrointestinal adverse events ([2]; range over the dose groups) | subjects developing low titre non-neutralising anti-semaglutide antibodies (no cross-reaction to native GLP-1) ([2]; semaglutide 1.6 mg T) |
| --- | --- | --- | --- | --- | --- | --- | --- | --- | --- | --- | --- |
| CCCCCCCCCCCCCCCC(=O)N[C@@H](CCC(=O)NCCCC[C@H](NC(=O)[C@H](C)NC(=O)[C@H](C)NC(=O)[C@H](CCC(N)=O)NC(=O)CNC(=O)[C@H](CCC(=O)O)NC(=O)[C@H](CC(C)C)NC(=O)[C@H](Cc1ccc(O)cc1)NC(=O)[C@H](CO)NC(=O)[C@H](CO)NC(=O)[C@@H](NC(=O)[C@H](CC(=O)O)NC(=O)[C@H](CO)NC(=O)[C@@H](NC(=O)[C@H](Cc1ccccc1)NC(=O)[C@@H](NC(=O)CNC(=O)[C@H](CCC(=O)O)NC(=O)[C@H](C)NC(=O)[C@@H](N)Cc1cnc[nH]1)[C@@H](C)O)[C@@H](C)O)C(C)C)C(=O)N[C@@H](CCC(=O)O)C(=O)N[C@@H](Cc1ccccc1)C(=O)N[C@H](C(=O)N[C@@H](C)C(=O)N[C@@H](Cc1c[nH]c2ccccc12)C(=O)N[C@@H](CC(C)C)C(=O)N[C@H](C(=O)N[C@@H](CCCNC(=N)N)C(=O)NCC(=O)N[C@@H](CCCNC(=N)N)C(=O)NCC(=O)O)C(C)C)[C@@H](C)CC)C(=O)O [liraglutide] | no major hypoglycaemia | no reports | no reports | 2.2%-10 |  |  |  |  |  |  |  |
| CC[C@H](C)[C@H](NC(=O)[C@H](Cc1ccccc1)NC(=O)[C@H](CCC(=O)O)NC(=O)[C@H](CCCCNC(=O)COCCOCCNC(=O)COCCOCCNC(=O)CC[C@H](NC(=O)CCCCCCCCCCCCCCCCC(=O)O)C(=O)O)NC(=O)[C@H](C)NC(=O)[C@H](C)NC(=O)[C@H](CCC(N)=O)NC(=O)CNC(=O)[C@H](CCC(=O)O)NC(=O)[C@H](CC(C)C)NC(=O)[C@H](Cc1ccc(O)cc1)NC(=O)[C@H](CO)NC(=O)[C@H](CO)NC(=O)[C@@H](NC(=O)[C@H](CC(=O)O)NC(=O)[C@H](CO)NC(=O)[C@@H](NC(=O)[C@H](Cc1ccccc1)NC(=O)[C@@H](NC(=O)CNC(=O)[C@H](CCC(=O)O)NC(=O)C(C)(C)NC(=O)[C@@H](N)Cc1cnc[nH]1)[C@@H](C)O)[C@@H](C)O)C(C)C)C(=O)N[C@@H](C)C(=O)N[C@@H](Cc1c[nH]c2ccccc12)C(=O)N[C@@H](CC(C)C)C(=O)N[C@H](C(=O)N[C@@H](CCCNC(=N)N)C(=O)NCC(=O)N[C@@H](CCCNC(=N)N)C(=O)NCC(=O)O)C(C)C [semaglutide] |  |  |  |  | increased with dose, but were generally mild or moderate and ameliorated by titration | no reports | No semaglutide safety concerns were identified | no reports | no major hypoglycaemia | 4.7%-27.7 | One subject |
